Laboratory results taken from US20110105623A1 (Biogenic Innovations, LLC, priority 2009, published 2011).
“And” between values parts separate entries of the source, which are not always exact repeats. Identical values can stand only once. “Also recorded” adds a separate entry of the source. Like-named read-outs stand apart in the source and are kept apart here.

Tests used:
Aspergillus niger = assay: USP <51> AET in cosmetic cream/composition; format: cell-based; settings: 10% MSM in cosmetic cream without preservative, 48 hrs-28 days
Bifidobacterium bifidum = assay: Growth in MRS broth fortified with MSM (anaerobic); format: cell-based; settings: for log higher than the 0% MSM control: 48 hours
Protocol: Each organism (Lactobacillus rhamnosus, Lactobacillus acidophilus, and Bifidobacterium bifidum) was grown in MRS bacterial growth medium (broth) and plated on MRS agar at different time intervals. Results are expressed in colony forming units per milliliter (cfu/mL).
The 0.1% and 0.04% test concentrations were prepared by making a 1:10 dilution of the 1% and 0.4% test solutions. Once each set of test media was plated for sterility, they were inoculated at a level of 100 μl of inoculum per 100 g or mLs of test broth (1:1000 inoculum dilutions) with each respective microorganism. All bacterial organisms were incubated at 35° C.+/−2° C. for the duration of the study.
All samples were plated on MRS agar at time 0, 12, 36, 48, 60 and 72 hours (+/−45 minutes). All preparations and plating were conducted at room temperature. All plating events were incubated at 35° C.+/−2° C. for at least 2 days or 3 days for Bifidobacterium. Test samples were plated in triplicate at each test date and the averages are reported.
Bifidobacterium bifidum, a common microbe used in probiotics, was also tested. All Bifidobacterium samples were incubated under anaerobic conditions.

[1] = system: White Labs Edinburgh Ale yeast; assay: Fermentation efficiency in production of beer (Scotch Ale); format: cell-based; settings: 0.5% MSM
Excerpt: This positive impact includes such organisms as fungi, yeast, and bacteria. Yeast cultures are involved in the production of beer during the fermentation process to produce ethanol and carbon dioxide. […] Wort is the liquid extracted from the mashing process during the brewing of beer or whisky. Wort contains the sugars that are fermented by the brewing yeast to produce alcohol.
This Procedure is detailed below.
After preparing the mash, the brewing process was started. […] Equipment was cleaned thoroughly with PBW. The wort chiller and filtered air stone were sanitized with brewing sanitizer (San Star Brewing Sanitizer). […] At 30 minutes of boil, a second aliquot (0.5 ounces) of Cascade hops was added. At 40 minutes of boil, third aliquot (0.5 ounces) of Cascade hops was added as well as 2 teaspoons of […] Moss. At 50 minutes of boil, a fourth aliquot (0.5 ounces) of Cascade hops was added. Wort was decanted from the brew kettle to the wort chiller and chilled to 74° F. The wort was then divided into two fermentors (each 21 liters in volume). […] Both fermentors were aerated for 25 minutes with sanitized filtered air stone.

[2] = system: ATCC strain 8739 Escherichia coli; assay: Bromcresol Purple color change with MSM; format: cell-based
Protocol: To investigate whether MSM functions as a carrier/transporter, the ability of MSM to transport Bromcresol into the E. coli was evaluated. Bromcresol Purple is an indicator dye that turns yellow in the presence of E. coli bacteria. It is non-toxic to the organism. […] All concentrations were plated out to 10^−7 dilutions to ascertain the log reduction.
Flake OptiMSM was weighed out using a certified Mettler Toledo AG245 balance SN: 1115210833 and aliquoted for each concentration. […] Tubes were cooled to room temperature which was approximately 20° C. All tubes were then spiked with the same dilution of Escherichia coli that gave a level of colony forming units at 6.0×10^6/mL (6.8). The tubes were then incubated at 25° C. Daily observation for color change was performed during the first seven days. The tubes were mixed periodically to ensure that the OptiMSM was well equilibrated at all times. A positive and negative control was ascertained.

[3] = system: MRC-5 (Human lung fibroblasts) cells; assay: Toxicity control for Pre-Treatment test; format: cell-based
Excerpt: (§1) B. Toxicity Control for Pre-Treatment Test.

[4] = system: Vero (African green monkey kidney) cells; assay: Toxicity control for Pre-Treatment test; format: cell-based
Excerpt: as §1

[5] = system: Herpes Simplex Virus type 1 (ATCC #VR-260); format: cell-based
[6] = system: Lactobacillus acidophilus ATCC #4356; assay: Growth and recovery in simulated intestinal tract environment
Protocol: The pH of the simulated intestinal fluid was 6.8. The microorganisms analyzed included Lactobacillus acidophilus ATCC #4356:
For the Lactobacillus acidophilus, bottled milk was used as the product. One milliliter of a 9 log solution of organism was placed into a 99 mL of bottled milk and mixed by hand shaking. […] The gastric acid was pre-warmed to 35° C. and kept at 35° C. for the duration of the 20 minutes. At the end of the 20 minute period, 10 mL of the simulated gastric acid, Lactobacillus acidophilus and milk mixture was placed into 90 mL of simulated intestinal fluid. The simulated intestinal fluid was pre-warmed to 35° C. and kept at 35° C. during the duration of the study.

## Methylsulfonylmethane [MSM]
Aspergillus niger; 48 hours after inoculation
  AET microorganism count: 8 × 10^3
Aspergillus niger; 14 days after inoculation
  AET microorganism count: 6 × 10^3
Aspergillus niger; 28 days after inoculation
  AET microorganism count: 5 × 10^2
Bifidobacterium bifidum; 0.2% MSM
  log increases of Bifidobacterium: 2 log
  log higher than the 0% MSM control: 1 log
Bifidobacterium bifidum; 0.04% MSM
  log higher than the 0% MSM control: 1 log
[1]
  fermentor activity sooner than control: 58%
  sooner time of completion: 17-25%
  starter activity sooner than control: 80%
  time to activity, fermentor: 3.5 h
  time to maximum fermentation: 5 days
[2]; 5-7% MSM, Day one
  color change of the broth: color change of the broth to yellow
[2]; 8% MSM, Day one, Day three
  color change of the broth: slight clearing of color; also recorded: turning to the typical yellow color
[2]; 9% MSM, Day 7
  color change of the broth: turning to a yellow color
[2]; 10%-16% MSM, Day 7, 14, 30
  color change of the broth: No color change; also recorded: no signs of change
[2]; concentration tubes 10%-16% MSM, 72 hour incubation
  organism recovery, streaked on MacConkey agar: No organisms were observed
[3]; MRC-5, 0.5%
  Test Product Cytotoxicity (CPE): 00
[3]; MRC-5, 1%
  Test Product Cytotoxicity (CPE): 00
[3]; MRC-5, 2%
  Test Product Cytotoxicity (CPE): 00
[3]; MRC-5, 3%
  Test Product Cytotoxicity (CPE): 00
[3]; MRC-5, 4%
  Test Product Cytotoxicity (CPE): 00
[3]; MRC-5, 5%
  Test Product Cytotoxicity (CPE): 00
[3]; MRC-5, 6%
  Test Product Cytotoxicity (CPE): 00
[4]; 0.5%
  Test Product Cytotoxicity (CPE): 00
[4]; 1%
  Test Product Cytotoxicity (CPE): 00
[4]; 2%
  Test Product Cytotoxicity (CPE): 00
[4]; 3%
  Test Product Cytotoxicity (CPE): 00
[4]; 4%
  Test Product Cytotoxicity (CPE): 00
[4]; 5%
  Test Product Cytotoxicity (CPE): 00
[4]; 6%
  Test Product Cytotoxicity (CPE): 00
[4]; 7%
  Test Product Cytotoxicity (CPE): 00
[5]
  Average TCID50: 3.17log10 and 4.67log10 and 4.33log10 and 4.08log10 and 4.83log10 and 5.00log10 and 5.42log10
  CPE at dilution −8: 0000
  Response, % reduction: 78.620% and 99.320% and 99.790% and 87.980% and 93.240% and 98.800% and 97.860% and 61.980%
[5]; 1% MSM
  average log10 reduction: 0.67 log10
  average percent reduction: 78.62%
[5]; 2% MSM
  average log10 reduction: 0.84 log10
  average percent reduction: 85.55%
[5]; 3% MSM
  average log10 reduction: 1.00 log10
  average percent reduction: 90.00%
[5]; 4% MSM
  average percent reduction: 97.43%
[5]; Dose 5.312 mM (log dose 0.7252581)
  Response, % reduction: 32.390% and 61.980%
[5]; Dose 31.871 mM (log dose 1.503396)
  Response, % reduction: 96.200% and 93.240% and 61.980%
[5]; Dose 53.118 mM (log dose 1.725242)
  Response, % reduction: 87.980% and 93.240% and 98.800%
[5]; log(inhibitor) vs. normalized response, variable slope
  HillSlope, best-fit value: 1.523
[5]; log(inhibitor) vs. normalized response, variable slope, dose in mM
  LogIC50, best-fit value: 1.006
[6]; 5.0% MSM, 20 min Gastric
  Log Growth of Lactobacillus acidophilus: <1.00 logs
[6]; 5.0% MSM, Hour 3, simulated intestinal fluid
  Log Growth of Lactobacillus acidophilus: 1.62 logs
[6]; 5.0% MSM, Hour 8, simulated intestinal fluid
  Log Growth of Lactobacillus acidophilus: 2.33 logs
[6]; 5.0% MSM, Hour 24, simulated intestinal fluid
  Log Growth of Lactobacillus acidophilus: 6.39 logs
[6]; 5.0% MSM, Hour 30, simulated intestinal fluid
  Log Growth of Lactobacillus acidophilus: 6.63 logs
[6]; 5.0% MSM, Hour 36, simulated intestinal fluid
  Log Growth of Lactobacillus acidophilus: 8.65 logs
[6]; 5.0% MSM, Hour 48, simulated intestinal fluid
  Log Growth of Lactobacillus acidophilus: 10.17 logs
[6]; 5.0% MSM, Hour 54, simulated intestinal fluid
  Log Growth of Lactobacillus acidophilus: 13.33 logs
[6]; 5.0% MSM, Hour 60, simulated intestinal fluid
  Log Growth of Lactobacillus acidophilus: 12.76 logs
[6]; 5.0% MSM, Hour 72, simulated intestinal fluid
  Log Growth of Lactobacillus acidophilus: 12.78 logs
[6]; 5.0% MSM, Starting Inoculum
  Log Growth of Lactobacillus acidophilus: 7.02 logs
[6]; 5.0% MSM, hour 36
  log growth: 8.65 logs
[6]; 5.0% MSM, period after hour 48
  increase in growth: 3.16 logs
[6]; […] MSM, 20 min Gastric
  Log Growth of Lactobacillus acidophilus: <1.00 logs
[6]; […] MSM, Starting Inoculum
  Log Growth of Lactobacillus acidophilus: 6.86 logs
[6]; […] MSM, hour 36 to 48
  increase in growth: 3.65 logs
